Patent publication US6423823B1, “Organic chemical compounds and method for producing the same” (Bayer Aktiengesellschaft, priority 1997, dated 2002)
Numbered stars: 1 amine (or outer) side, 2 acyl side, 3 side chain; on linkers, the order of the positions; unused ones are H or OH. Square brackets hold non-standard residues; d marks the D form. Peptide text beside a SMILES is read from it. ξ: configuration not given here. X1 = CC(OC(=O)CC(C)(C)O)C(C)C(C(=O)[*:2])N(C)[*:1]; X4 = CC(=O)OC(C)C(C)C(C(=O)[*:2])N(C)[*:1]; X3 = O=C(C1CC2(O)c3ccccc3NC2N1[*:1])[*:2]; ξNMeVal(3-OH) = CNC(C(=O)O)C(C)(C)O; NMeξGly(OAc) = CNC(OC(C)=O)C(=O)O; NMeI = CC[CH](C)[CH](NC)C(=O)O; X2 = CN(C(O)C(=O)[*:2])[*:1]; NMeV = CN[CH](C(=O)O)C(C)C; Sar = CNCC(=O)O

Key:
Meloidogyne incognita [1] = assay: Nematicidal activity on phytopathogenic nematodes in 24-well tissue culture plates; conditions: lethal dose for 90% of the nematode population, second larval stage, after 16 hours
Method: (§1) Test nematode: Meloidogyne incognita
Test method: The test substances are dissolved in methanol and pipetted into the wells of tissue culture plates (24-well tray). The solvent is evaporated, and 400 μl of nematode suspension are then added to each well of the tissue culture plate. The number of nematodes is 100 larvae of the second larval stage/400 μl . To promote the solubility of the samples in aqueous medium, the plate is shaken at 100 rpm for 15 minutes, and a first microscopic control is then carried out. After 16 hours, the percentage of dead larvae is determined and stated as LD90 (lethal dose for 90% of the nematode population).

Meloidogyne incognita [2] = assay: Effect on nematodes in the greenhouse (test crop: cucumbers); format: in vivo; conditions: for Efficacy in %: cucumber plants, after 14 days, 100% = no galls formed; for Number of galls/plant: poured onto cucumber plants, evaluation after 14 days
Method: as §1
Test method: In each case two cucumber plants (variety Bella F1) are grown in a soil-leaf mixture in pots of the dimensions 7×7×6 cm. The test substances are, in the appropriate concentrations, dissolved in methanol and then diluted in water and then poured onto the cucumber plants, which are about 14 days old. Per drip, 10 ml of solution are poured on. 3 hours after the treatment, about 500 nematodes are pipetted as a suspension onto each pot. The pots are incubated in a greenhouse at a day temperature of about 26° C. and a night temperature of 20° C. After 14 days, evaluation is carried out by washing out the roots and determining the galls formed per plant.
The efficacy of the test substance is 100% if no galls have been formed, and it is 0% if the same number of galls have been formed as in the control.

Trichinella spiralis = assay: In vitro test against Trichinella spiralis; conditions: concentration of 1 μg/ml
Method: The test was carried out according to the test description in the publication Plant et al. (1996) Pesticide Science 48: 351-358.

Heterakis spumosa = assay: In vivo mouse model, intestinal nematode; conditions: dosage of 50 mg/kg
Method: In the in vivo mouse model, omphalotin B has full activity against the intestinal nematode Heterakis spumosa at a dosage of 50 mg/kg. The test is described in the above publication.

Spodoptera frugiperda = assay: Insecticidal maize leaf test; format: in vivo; conditions: lethal dose for 50% of larvae, third larval stage, after 72 hours
Method: Test Insect: Spodoptera frugiperda
Test method: A rectangle (1.5×2 cm) cut from maize leaves (8-10 day-old plant, variety Golda) is placed in a Petri dish (diameter 5.5 cm, Greiner). The test substance, as a methanolic solution, is applied to the maize leaf and, after the solvent has evaporated, a filter disc (diameter 13 mm, Schleicher und Schüll) saturated with water and a larva of the third larval stage are added. The larva is placed next to the piece of leaf. The experiment is incubated at 24° C. After 48 hours, untreated maize (1.5×2 cm) is added. The feed behaviour and the state of the larvae are evaluated after 24, 48 and 72 hours. Per test concentration, 4 experiments and 3 repetitions are carried out. The insecticidal effect is stated as LD50 (lethal dose for 50% of larvae) after 72 hours.

Plutella xylostella = assay: Insecticidal leaf disc test (savoy cabbage); format: in vivo; conditions: lethal dose for 100% of the larvae tested, third larval stage, after 72 hours
Method: Test insect: Plutella xylostella
(§2) Test method: Using a cork borer, 2 discs having a diameter of 10 mm are punched out of savoy cabbage leaves and placed in a Petri dish (diameter 5.5 cm, Greiner). The test substance is pipetted onto the leaf discs and, after the solvent has evaporated, a filter disc (diameter 13 mm, Schleicher und Schüll) saturated in water and 2 freshly hatched larvae of the third larval stage are added. The larvae are placed next to the leaf discs. The experiment is incubated at 24° C. After 48 hours, an untreated savoy cabbage disc (10 mm Ø) is added. The feed behaviour and the state of the larvae are evaluated after 24, 48 and 72 hours. Per test concentration, 2 experiments and 3 repetitions are carried out. The insecticidal effect is stated as LD100 (lethal dose for 100% of the larvae tested) after 72 hours.

Phaedon cochleariae = assay: Insecticidal leaf disc test (savoy cabbage); format: in vivo; conditions: lethal dose for 100% of the larvae tested, third larval stage, after 96 hours
Method: Test insect: Phaedon cochleariae
as §2, with “und Schull)” for “und Schüll)”, “24, 48, 72” for “24, 48”, “and 96” for “and 72”, “after 96” for “after 72”

**Q.** What does the source list for CCC(C)C1NC(=O)C(C(C)C)N(C)C(=O)C2CC3(O)c4ccccc4NC3N2C(=O)CN(C)C(=O)C(C(C)CC)N(C)C(=O)C(C(C)C)NC(=O)C(O)N(C)C(=O)C(C(C)C(C)OC(=O)CC(C)(C)O)N(C)C(=O)C(C(C)(C)O)N(C)C(=O)CN(C)C(=O)C(C(C)C)N(C)C(=O)C(C(C)C)N(C)C1=O (centres unmarked) [Omphalotin B] (cyclo([Sar][ξNMeVal(3-OH)][X1][X2]V[NMeI][Sar][X3][NMeV]I[NMeV][NMeV]); configuration not given here)?
**A.** Nematicidal activity against Meloidogyne incognita LD90 (Meloidogyne incognita [1]): 2.5 µg/mL; Efficacy in % (Meloidogyne incognita [2]; 2 ppm): 99%; Number of galls/plant (Meloidogyne incognita [2]; 2 ppm): 1; Efficacy in % (Meloidogyne incognita [2]; 5 ppm): 100%; Number of galls/plant (Meloidogyne incognita [2]; 5 ppm): 0; Effect against Trichinella spiralis in vitro (Trichinella spiralis): full effect; Activity against the intestinal nematode Heterakis spumosa (Heterakis spumosa): full activity

**Q.** Which results are given for CCC(C)C1NC(=O)C(C(C)C)N(C)C(=O)C2CC3(O)c4ccccc4NC3N2C(=O)CN(C)C(=O)C(C(C)CC)N(C)C(=O)C(C(C)C)NC(=O)C(OC(C)=O)N(C)C(=O)C(C(C)C(C)OC(=O)CC(C)(C)O)N(C)C(=O)C(C(C)(C)O)N(C)C(=O)CN(C)C(=O)C(C(C)C)N(C)C(=O)C(C(C)C)N(C)C1=O (centres unmarked) [Omphalotin C] (cyclo([Sar][ξNMeVal(3-OH)][X1][NMeξGly(OAc)]V[NMeI][Sar][X3][NMeV]I[NMeV][NMeV]); configuration not given here)?
**A.** Nematicidal activity against Meloidogyne incognita LD90 (Meloidogyne incognita [1]): 1 µg/mL; Insecticidal activity against Spodoptera frugiperda LD50 (Spodoptera frugiperda): 100 μg/maize leaf; Efficacy in % (Meloidogyne incognita [2]; 2 ppm): 99%; Number of galls/plant (Meloidogyne incognita [2]; 2 ppm): 1; Efficacy in % (Meloidogyne incognita [2]; 5 ppm): 100%; Number of galls/plant (Meloidogyne incognita [2]; 5 ppm): 0

**Q.** Which “Nematicidal activity against Meloidogyne incognita LD90” value (Meloidogyne incognita [1]) does the source give for CCC(C)C1NC(=O)C(C(C)C)N(C)C(=O)C2CC3(O)c4ccccc4NC3N2C(=O)CN(C)C(=O)C(C(C)CC)N(C)C(=O)C(C(C)C)NC(=O)C(OC(C)=O)N(C)C(=O)C(C(C)C(C)OC(C)=O)N(C)C(=O)C(C(C)(C)O)N(C)C(=O)CN(C)C(=O)C(C(C)C)N(C)C(=O)C(C(C)C)N(C)C1=O (centres unmarked) [Omphalotin D] (cyclo([Sar][ξNMeVal(3-OH)][X4][NMeξGly(OAc)]V[NMeI][Sar][X3][NMeV]I[NMeV][NMeV]); configuration not given here) here?
**A.** Its value is 4 µg/mL.

**Q.** What about the “Insecticidal activity against Plutella xylostella LD100” value (Plutella xylostella) of the same molecule?
**A.** Its value is 100 μg/leaf disc.

**Q.** And the “Insecticidal activity against Phaedon cochleariae LD100” value (Phaedon cochleariae)?
**A.** The value was 100 μg/leaf disc.

**Q.** And the “Insecticidal activity against Spodoptera frugiperda LD50” value (Spodoptera frugiperda)?
**A.** The value was 80 μg/maize leaf.
